Assay results as given in US10316293B2, “Methods for producing single pluripotent stem cells and differentiation thereof” (LifeScan, Inc., priority 2007, dated 2019).

What was measured:
[1] = tested on: Human embryonic stem cells H9p33; assay: Cell releasing enzyme panel: passage of hES cell clusters as single cells, recovered cells counted with trypan blue; assay type: cell-based; details: for CELL NUMBER: recovered cells/well after three days on MATRIGEL, reseeded at 200,000 cells/well (collagenase: clusters, 30 minute incubation, 1:5 dilution)
Procedure: Human embryonic stem cells H9p33 cells grown in clusters in a 6 well dish were incubated with the following enzymes; TrypLE™ Express (stable tryspin-like enzyme (Invitrogen (Carlsbad, Calif.)), TrypLE™ Select (animal origin-free trypsin-like enzyme Invitrogen (Carlsbad, Calif.)), trypsin/EDTA (0.05%), or trypsin (0.25%), for two minutes at 36° C. All enzymes released the cells within two minutes except trypsin. Release with trypsin was achieved after five minutes at 36° C. Cells were reseeded at 200,000 cells/well into a 6 well plate coated with MATRIGEL™ and allowed to expand for three days. Human embryonic stem cells were also passed as clusters with collagenase (30 minute incubation) and reseeded at a 1:5 dilution on MATRIGEL™-coated wells, similar to the counted TrypLE™ Express cells. After three days, the hESC were released by a five minute incubation with TrypLE™ Express. Cells were incubated with 0.01% trypan blue and then counted (Table 1). Cell viability immediately after release was greater than 98% for all enzymes tested. Passage of human embryonic stem cells with collagenase is the standard passaging method. […] TrypLE™ Select and TrypLE™ Express were the best enzymes evaluated and were further tested in a time course experiment, Example 3.

H1 passage 37 hES cells = assay: Passage of hES cells directly from MEF feeders to MATRIGEL with enzymes; assay type: cell-based, human
Procedure: In an effort to move to a feeder free culture of hES cells from a feeder based culture, H1 passage 37 hES cells that had been supported by a MEF feeder layer in hESC media and grown for 5 days on 10 cm^2 wells of 6 well plates were passaged. The cells were passaged with either TrypLE™, Accutase™, or 1 mg/ml of collagenase.
Before adding enzyme to the cells, the spent media was aspirated, 1 ml PBS (no Ca^2+, or Mg^2+) was added to each well, was aspirated again, and then 1 ml of room temperature enzyme (collagenase, Accutase™, or TrypLE™) was added. Accutase™ or TrypLE™ were used at stock concentration after reaching room temperature. Collagenase was removed from −80° C. freezer, thawed, mixed with 9 ml DMEM/F12, sterile filtered, and allowed to reach room temperature before use.
The cells were incubated in enzyme at 37° C. for 10 min. […] One ml of 2% Probumin in DMEM-F12 was added to each well and the combined total volume in the well was transferred to a 50 ml sterile conical tube, making sure to lift and suspend as many cells as possible.
The cells were centrifuged for 5 minutes at 200×g followed by an additional wash with 2% Probumin and centrifugation for 5 minutes at 200×g. Cell were then resuspended in MEF conditioned media and plated at a 1 to 3.5 ratio onto MATRIGEL™ (1:30 dilution in DMEM) coated T25 flasks, and placed in a 37° C., 5% CO2, humidified incubator.
Cell number was calculated by counting with an Improved Neubauer hemocytomer. […] Given a 1 to 3.5 split ratio, we plated the Accutase treated cells at a seeding density of 2.72 million cells/T25flask or 108,000 cells/cm^2, the TrypLE™ treated cells at a seeding density 2.65 million cells/T25flask or 105,000 cells/cm^2. It is assume that Collagenase treated wells were seeded at a similar density (105,000 to 108,000 cells/cm^2), since there was no appreciable difference in hES density from well to well before enzyme treatment. An additional flask was plated with Collagenase lifted cells for counting purposes at the next passage.
Cells were maintained for 4 days with daily changes of MEF conditioned media supplemented with […] of bFGF. After 4 days in culture the cultures were confluent, and the single cell treated hES cells formed monolayers of hES cells with occasional pockets of fibroblasts, while the cluster passaged hES cells formed large colony style clusters of hES cells (FIG. 13). These cells were then passaged again.
As previously described, the cells were incubated in enzyme at 37° C. for 10 min. […] The additional collagenase flask was lifted with Accutase™. The single cells were then with an Improved Neubauer hemocytometer.
Two ml of 2% Probumin in DMEM-F12 was then added to each flask after enzyme incubation, the total volume (˜4 ml) from the flask was pipetted up and down 5-10 times in order to suspend as many cells as possible. The suspension was then transferred to a 50 ml conical tube and centrifuged for 5 min at 200×g. Cells were then resuspended in MEF conditioned media supplemented with […] of bFGF, and then plated to T25 flasks precoated with 1:30 MATRIGEL™ at a ratio of 1:4.
Given that the cells were passaged at a 1:4 ratio, the cells were plated at a density of 58,000 cell/cm^2 for Accutase™ passage, 51,000 cell/cm^2 for TrypLE™ passage, and 35,000 cell/cm^2.
Cells were then grown for an additional 6 days, with daily media change of MEF conditioned media supplemented with 16 ng/ml of bFGF.

hES H9scp18 = assay: Definitive endoderm differentiation of hES single cells in 96 well plates, IN Cell 1000 cell number and Sox17 staining; assay type: cell-based, human; details: 10 ng/ml Wnt3a, with 100 ng/ml Activin A, 0.5% FBS, two days; 40 wells
Procedure: hES H9scp18 were seeded into Packard View 96-well plates (Perkin-Elmer) coated with 1:30 growth factor reduced MATRIGEL™ at a density of 14,000 cells/cm^2. The cells were grown for three to four days in MEF conditioned medium and then treated using a DE differentiation protocol. A subset of 40 wells was treated with a standard protocol (10 ng/ml Wnt3a, 100 ng/ml Activin A, and 0.5% FBS in DMEM:F12 for two days). A second subset of 40 wells was treated with the GSK3b inhibitor IX (100 nM; EMD Chemicals, La Jolla, Calif.) instead of Wnt3a. This was followed by treatment for both subsets for three days with 100 ng/ml Activin A and 2% FBS in DMEM:F12. At the end of culture, cells were fixed with 4% paraformaldehyde at room temperature for 20 minutes, washed three times with PBS, and stored in 100 ul PBS overnight. Cells were permeabilized with 0.5% Triton X-100 (Sigma-Aldrich), either at room temperature for 20 minutes or at 4° C. for five minutes, then washed three times with PBS and blocked with 4% chicken serum (Invitrogen-Gibco, Carlesbad, Calif.) in PBS for 30 minutes at room temperature. […]

[2] = T25 flask on 1:30 MATRIGEL, MEF conditioned media

Question: What does the source list for Collagenase?
Answer: CELL NUMBER [1]: 3.5 10^5; density after four days in culture (H1 passage 37 hES cells; [2]): 138,000 cell/cm^2; density after four days in culture, cells total (H1 passage 37 hES cells; [2]): 3.45 million cells total; growth and morphology after two passages (H1 passage 37 hES cells; additional 6 days on MATRIGEL after second passage): form large colonies of dense and homogeneous cells; lifting of cells from the dish (H1 passage 37 hES cells; first passage from MEF feeders, 10 min at 37° C.): did not lift cells; density of lifted cells (H1 passage 37 hES cells; first passage from MEF feeders, hemocytometer count): not countable by hemocytometer; lifting of cells from plastic and MATRIGEL (H1 passage 37 hES cells; second passage, 10-minute treatment at 37° C.): did not lift cells

Question: TRYPSIN was tested. Which “time to release the cells” value ([1]; 36° C.) did it give?
Answer: five

Question: What about the “recovered cell counts / maintaining cell attachment/growth (in words)” value ([1]; after three days culture, compared with collagenase) of the same molecule?
Answer: significantly less effective at maintaining cell attachment/growth

Question: And the “CELL NUMBER” value [1]?
Answer: 0.1 10^5

B1: Wnt3a: Wnt3a (R&D Systems), 10 ng/ml in the definitive endoderm protocol (protein, UniProt P56704 19-352, looked up)
Protein Wnt-3a: SYPIWWSLAVGPQYSSLGSQPILCASIPGLVPKQLRFCRNYVEIMPSVAEGIKIGIQECQHQFRGRRWNCTTVHDSLAIFGPVLDKATRESAFVHAIASAGVAFAVTRSCAEGTAAICGCSSRHQGSPGKGWKWGGCSEDIEFGGMVSREFADARENRPDARSAMNRHNNEAGRQAIASHMHLKCKCHGLSGSCEVKTCWWSQPDFRAIGDFLKDKYDSASEMVVEKHRESRGWVETLRPRYTYFKVPTERDLVYYEASPNFCEPNPETGSFGTRDRTCNVSSHGIDGCDLLCCGRGHNARAERRREKCRCVFHWCCYVSCQECTRVYDVHTCK
Question: B1 was tested. Which “number of cell nuclei per well” value (hES H9scp18) did it give?
Answer: highest number of cell nuclei per well with little variability between wells
